{
  "source": "patent US20030166213A1",
  "about": "“Methods for identifying compounds that modulate disorders related to nitric oxide/ cGMP-dependent protein kinase signaling” (priority 2000, published 2003)",
  "tested_on": "Drosophila melanogaster",
  "assay": "Effects of methylphenidate on rest (sleep) in flies, Drosophila Activity Monitoring System",
  "format": "in vivo",
  "settings": "wild-type Canton-S virgin female flies; 0.5 mg/ml methylphenidate dissolved in the food; transferred two hours before lights-off; rest over the following 14 hours vs baseline; p<0.05",
  "protocol": "Wild-type Canton-S (CS) flies were placed into a 50 ml vial containing yeast, dark corn syrup and agar food. Each colony was housed at 25° C. with a relative humidity of 50% in a Forma Scientific incubator. The flies were maintained on a 12:12 light/dark cycle with “lights-on” commencing at 8:00 am and “lights-off” commencing at 8:00 pm to yield darkness. Virgin females were collected and maintained in 50 ml vials for one day. During the second day, flies were individually placed into glass tubes (65 mm in length, 5 mm I.D.) containing about lomm of fresh food and the tubes were placed into the Drosophila Activity Monitoring System (Trikinetics, Waltham, Mass.). The flies remained undisturbed for the following 48 hours. The amount and distribution of rest was evaluated during the third day to ensure that the flies had adapted to the apparatus as previously described in Shaw et. al., Science 287:1834-1837 (2000). On day 4, two hours before lights-off, flies were transferred to fresh glass tubes containing only standard laboratory food or to tubes with 0.5 mg/ml methylphenidate that had been dissolved in the food. The amount and distribution of rest during the following 14 hours was then evaluated.",
  "note": "Entries after “also recorded” stand apart in the source; their conditions may differ.",
  "data": [
    {"smiles": "COC(=O)C(c1ccccc1)C1CCCCN1", "note": "(stereo not shown) [methylphenidate]", "values": [
      {"measurement": "amount and distribution of rest", "result": "rest was significantly reduced compared to baseline; also recorded: significant and substantial decrease in rest"}
    ]}
  ]
}
